The record followed here is US10188615B2, “Alkoxy compounds for disease treatment” (Acucela Inc., priority 2007, dated 2019).

Experiment [1] has as its target visual cycle isomerase (Bos taurus (Bovine), UniProt Q28175). Briefly: Bovine in vitro isomerase inhibition assay (RPE microsome membranes).
Experimental: The capability of compounds disclosed herein to inhibit the activity of a visual cycle isomerase was determined.
All tests were performed in duplicate.
Experiment [2] addresses isomerase (Mus musculus (Mouse), UniProt Q91ZQ5). Briefly: In vivo murine isomerase assay (recovery of 11-cis-retinal after photobleaching). Also noted: species or system mice. Conditions: read-out: % Inhibition 1 mg/kg, 4 h. On the procedure:
The capability of compounds described herein to inhibit isomerase was determined by an in vivo murine isomerase assay. Brief exposure of the eye to intense light (“photobleaching” of the visual pigment or simply “bleaching”) is known to photo-isomerize almost all 11-cis-retinal in the retina. The recovery of 11-cis-retinal after bleaching can be used to estimate the activity of isomerase in vivo. Delayed recovery, as represented by lower 11-cis-retinal oxime levels, indicates inhibition of isomerization reaction.
The mice were allowed to recover 2 hours in the dark. The animals were then sacrificed by carbon dioxide inhalation. Retinoids were extracted from the eye and the regeneration of 11-cis-retinal was assessed at various time intervals.
After the mice were sacrificed, the eyes were immediately removed and placed in liquid nitrogen for storage.
The eyes were placed in 500 μL of bis-tris propane buffer (10 mM, pH ˜7.3) and 20 µL of 0.8M hydroxile amine (pH-7.3). The eyes were cut up into small pieces with small iris scissors and then thoroughly homogenized at 30000 rpm with a mechanical homogenizer (Polytron PT 1300 D) in the tube until no visible tissue remained. 500 μL of methanol and 500 μL of heptane were added to each tube. The tubes were attached to a vortexer so that the contents were mixed thoroughly for 15 minutes in room temperature. The organic phase was separated from the aqueous phase by centrifugation for 10 min at 13K rpm, 4° C. 240 μL of the solution from the top layer (organic phase) was removed and transferred to clean 300 μl glass inserts in HPLC vials using glass pipette and the vials were crimped shut tightly.
Loading volume for each sample is 100 μl; detection wavelength is 360 nm. The area under the curve for 11-cis retinal oxime was calculated by Agilent Chemstation software and was recorded manually. Data processing was performed using Prizm software.
Positive control mice (no compound administered) were sacrificed fully dark-adapted and the eye retinoids analyzed. Light (bleached) control mice (no compound administered) were sacrificed and retinoids isolated and analyzed immediately after light treatment.
Mice were sacrificed 2 hours after bleaching, eyes were enucleated, and retinoid content was analyzed by HPLC.
Recovery control mice (vehicle-only treated) were light-treated and left to recover for 2 hours in the dark before sacrifice and analysis. Light control mice (vehicle only treated) were sacrificed for analysis immediately after photo-bleaching.

For experiment [3], the target named is recombinant human RPE65 and LRAT (Homo sapiens (Human), UniProt Q16518). Briefly: Human in vitro isomerase inhibition assay. The class given is biochemical. Conditions: Human in vitro Inhibition data; inhibition of 11-cis-retinol formation; HEK293 homogenate, all-trans-retinol about 20 μM, 37° C., one hour; given as ranges. On the procedure:
The concentration dependent effect of the compounds disclosed herein on the retinol isomerization reaction was also evaluated with a recombinant human enzyme system. […] A homogenate of HEK293 cell clone expressing recombinant human RPE65 and LRAT were the source of the visual enzymes, and exogenous all-trans-retinol (about 20 μM) was used as the substrate. Recombinant human CRALBP (about 80 ug/mL) was added to enhance the formation of 11 cis-retinal. The 200 μL Bis-Tris Phosphate buffer (10 mM, pH 7.2) based reaction mixture also contains 0.5% BSA, and 1 mM NaPPi. In this assay, the reaction was carried out at 37° C. in duplicates for one hour and was terminated by addition of 300 μL methanol. The amount of reaction product, 11-cis-retinol, was measured by HPLC analysis following Heptane extraction of the reaction mixture. […] The ability of the numerous compounds disclosed herein to inhibit isomerization reaction is quantified and the respective IC50 value is determined.

Setting [4] is: Bovine in vitro Inhibition data, inhibition of 11-cis retinol formation, bovine RPE microsomes, 20 μM all-trans retinol, 37° C., 30 minutes, given as ranges.

SMILES strings stand for the structures. Like-named read-outs stand apart in the source and are kept apart here. Where only a bound is given, the exact number is not on record here.

Chain of recombinant human RPE65 and LRAT (Q16518 2-533): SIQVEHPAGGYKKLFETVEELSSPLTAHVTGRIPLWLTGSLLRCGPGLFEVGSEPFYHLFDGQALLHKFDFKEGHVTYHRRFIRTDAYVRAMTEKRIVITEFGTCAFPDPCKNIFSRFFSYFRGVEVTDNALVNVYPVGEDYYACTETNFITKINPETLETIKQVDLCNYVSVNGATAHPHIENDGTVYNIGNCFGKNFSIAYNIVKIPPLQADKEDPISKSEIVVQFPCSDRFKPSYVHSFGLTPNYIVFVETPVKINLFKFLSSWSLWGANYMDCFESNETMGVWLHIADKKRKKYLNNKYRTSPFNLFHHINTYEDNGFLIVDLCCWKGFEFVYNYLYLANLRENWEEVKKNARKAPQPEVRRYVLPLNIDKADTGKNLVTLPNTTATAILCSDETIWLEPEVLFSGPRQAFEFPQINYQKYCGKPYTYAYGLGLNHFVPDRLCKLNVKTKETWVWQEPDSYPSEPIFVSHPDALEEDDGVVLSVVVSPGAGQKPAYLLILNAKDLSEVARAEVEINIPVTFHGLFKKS
Chain of visual cycle isomerase (Q28175 2-533): as the sequence (Q16518 2-533) above, with I2S, V135I, I154V, L299I, N320H, G321E, C426G counted along it
Chain of isomerase (Q91ZQ5 whole entry): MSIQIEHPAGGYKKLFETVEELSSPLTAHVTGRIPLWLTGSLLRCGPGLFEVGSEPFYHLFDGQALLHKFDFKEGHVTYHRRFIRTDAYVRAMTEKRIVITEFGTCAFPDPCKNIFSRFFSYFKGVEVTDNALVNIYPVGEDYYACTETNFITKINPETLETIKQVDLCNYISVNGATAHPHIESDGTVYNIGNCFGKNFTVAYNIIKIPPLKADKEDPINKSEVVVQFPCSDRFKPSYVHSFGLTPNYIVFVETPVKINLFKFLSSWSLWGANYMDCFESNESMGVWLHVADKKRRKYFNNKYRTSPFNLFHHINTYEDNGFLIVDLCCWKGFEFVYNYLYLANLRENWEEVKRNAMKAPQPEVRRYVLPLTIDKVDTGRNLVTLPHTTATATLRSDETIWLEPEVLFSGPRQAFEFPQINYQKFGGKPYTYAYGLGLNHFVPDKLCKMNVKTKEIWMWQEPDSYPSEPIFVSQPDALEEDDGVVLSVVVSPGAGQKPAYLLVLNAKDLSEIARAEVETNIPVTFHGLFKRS

One may read the IC50 as the point on the concentration scale where inhibition reaches its midpoint. Take `NCCCc1cccc(OCC2CCCCC2)c1` [Example 1, 3-(3-(Cyclohexylmethoxy)phenyl)propan-1-amine]: the IC50 in experiment [1] (setting [4]) is not above 1000 nM. Further, the inhibition at 1 mg/kg in experiment [2] came out at 68%.

The molecule `CCCC(CCC)COc1cccc(CCCN)c1` [Example 2, 3-(3-(2-Propylpentyloxy)phenyl)propan-1-amine] came in with an IC50 in experiment [1] (setting [4]) not above 1000 nM. In experiment [2], the inhibition at 1 mg/kg came to 1%.

In experiment [1] (setting [4]), `CCC(CC)COc1cccc(CCCN)c1` [Example 3, 3-(3-(2-Ethylbutoxy)phenyl)propan-1-amine] displayed an IC50 not above 1000 nM. Moreover, in experiment [2], the inhibition at 1 mg/kg was found to be 12%.

Take `NCC(O)Cc1cccc(OCC2CCCCC2)c1` (stereo not shown) [Example 6, 1-Amino-3-(3-(cyclohexylmethoxy)phenyl)propan-2-ol]: in experiment [1] (setting [4]), the IC50 is not above 1000 nM.

With `NCCOc1cccc(OCc2ccccc2)c1` [Example 8, 2-(3-(Benzyloxy)phenoxy)ethanamine], in experiment [1], the half-inhibitory concentration (IC50) lay in the range of 1000 to 10000 nM.

For `NCCCc1cccc(OCC2(O)CCCCC2)c1` [Example 10, 1-((3-(3-Aminopropyl)phenoxy)methyl)cyclohexanol], the IC50 in experiment [1] (setting [4]) was not above 1000 nM.

The molecule `NCCCc1cccc(OCC2(O)CCCCCC2)c1` [Example 11, 1-((3-(3-aminopropyl)phenoxy)methyl)cycloheptanol] gave an IC50 in experiment [1] (setting [4]) not above 1000 nM.

Regarding `NCCOc1cccc(OCC2(O)CCCCCC2)c1` [Example 18, 1-((3-(2-Aminoethoxy)Phenoxy)Methyl)Cycloheptanol], the IC50 in experiment [1] was in the range of 1000 to 10000 nM.

In experiment [1], `CC(=O)NCCC(O)c1cccc(OCC2CCCCC2)c1` (stereo not shown) [Example 19, N-(3-(3-(cyclohexylmethoxy)phenyl)-3-hydroxypropyl)acetamide] had a half-inhibitory concentration (IC50) of 1000 to 10000 nM.

Consider `CCC(O)(CC)COc1cccc(C(O)CCN)c1` (stereo not shown) [Example 30, 3-((3-(3-Amino-1-hydroxypropyl)phenoxy)methyl)pentan-3-ol], for which the IC50 in experiment [3] was not above 10 nM. In addition, the inhibition at 1 mg/kg in experiment [2] is 57%.

With `NCCC(O)c1cccc(OCC2CCC2)c1` (stereo not shown) [Example 34, 3-Amino-1-(3-(cyclobutylmethoxy)phenyl)propan-1-ol], in experiment [3], the half-inhibitory concentration (IC50) was not above 10 nM.

For the molecule `NCCC(O)c1cccc(OCC2CCCC2)c1` (stereo not shown) [Example 35, 3-Amino-1-(3-(Cyclopentylmethoxy)Phenyl)Propan-1-Ol], in experiment [3], the concentration for half-maximal inhibition (IC50) is not above 10 nM. For the same molecule, the inhibition at 1 mg/kg in experiment [2] stood at 95%.

With `CCC(CC)COc1cccc(C(O)CCN)c1` (stereo not shown) [Example 45, 3-Amino-1-(3-(2-ethylbutoxy)phenyl)propan-1-ol], in experiment [3], the IC50 is not above 10 nM. In experiment [2], the inhibition at 1 mg/kg came out at 98%.

On to `NCCOc1cccc(OCCc2ccccc2)c1` [Example 47, 2-(3-Phenethoxyphenoxy)ethanamine], for which, in experiment [2], the inhibition at 1 mg/kg came out at 6%.

For `NCCC(O)c1cccc(OCC2CC3CCC2C3)c1` (stereo not shown) [Example 48, 3-Amino-1-(3-(bicyclo[2.2.1]heptan-2-ylmethoxy)phenyl)propan-1-ol], the IC50 in experiment [3] is not above 10 nM. Also, the inhibition at 1 mg/kg in experiment [2] was determined as 47%.

On to `CCCC(CCC)COc1cccc([C@H](O)[C@H](C)CN)c1` [Example 55, (1R,2R)-3-Amino-2-methyl-1-(3-(2-propylpentyloxy)phenyl)propan-1-ol], for which, in experiment [3], the IC50 is not above 10 nM. Moreover, the inhibition at 1 mg/kg in experiment [2] was 82%.

On to `C[C@H](CN)[C@@H](O)c1cccc(OCC2CCCC2)c1` [Example 56, (1R,2R)-3-Amino-1-(3-(cyclopentylmethoxy)phenyl)-2-methylpropan-1-ol], for which the IC50 in experiment [3] was not above 10 nM. The inhibition at 1 mg/kg in experiment [2] came out at 10%.

With `CCC(CC)COc1cccc([C@H](O)[C@H](C)CN)c1` [Example 72, (1R,2R)-3-Amino-1-(3-(2-ethylbutoxy)phenyl)-2-methylpropan-1-ol], the IC50 in experiment [3] was not above 10 nM. The inhibition at 1 mg/kg in experiment [2] turned out to be 13%.

Regarding `C[C@@H](CN)[C@H](O)c1cccc(OCC2CCCCC2)c1` [Example 73, (1S,2S)-3-Amino-1-(3-(Cyclohexylmethoxy)Phenyl)-2-Methylpropan-1-Ol], in experiment [2], the inhibition at 1 mg/kg stood at 23%.

In the case of `C[C@H](CN)[C@@H](O)c1cccc(OCC2CCCCC2)c1` [Example 74, (1R,2R)-3-Amino-1-(3-(Cyclohexylmethoxy)Phenyl)-2-Methylpropan-1-Ol], the IC50 in experiment [3] was not above 10 nM. In experiment [2], the inhibition at 1 mg/kg stood at 6%.

Regarding `COCCOCCOCC(=O)NCCC(O)c1cccc(OCC2CCCCC2)c1` (stereo not shown) [Example 77, N-(3-(3-(Cyclohexylmethoxy)phenyl)-3-hydroxypropyl)-2-(2-(2-methoxyethoxy)ethoxy)acetamide], the inhibition at 1 mg/kg in experiment [2] came out at 22%.

Take `CCCCCOc1cccc(C(O)CCN)c1` (stereo not shown) [Example 87, 3-Amino-1-(3-(pentyloxy)phenyl)propan-1-ol]: the IC50 in experiment [3] was not above 10 nM.

Turning to `COCCCCOc1cccc(C(O)CCN)c1` (stereo not shown) [Example 88, 3-Amino-1-(3-(4-methoxybutoxy)phenyl)propan-1-ol], the concentration for half-maximal inhibition (IC50) in experiment [3] was not above 10 nM. Besides, the inhibition at 1 mg/kg in experiment [2] is 78%.

Regarding `CC(C)CCOc1cccc(C(O)CCN)c1` (stereo not shown) [Example 107, 3-Amino-1-(3-(isopentyloxy)phenyl)propan-1-ol], the inhibition at 1 mg/kg in experiment [2] turned out to be 62%.

In the case of `Cc1ccc(COc2cccc(CCCN)c2)cc1` [Example 119, 3-(3-(4-Methylbenzyloxy)phenyl)propan-1-amine], the “IC50 (μM)” value in experiment [3] was “No detectable”.

In the case of `NCCCc1cccc(OCc2ccc(Cl)cc2)c1` [Example 120, 3-(3-(4-Chlorobenzyloxy)phenyl)propan-1-amine], the “IC50 (μM)” value in experiment [3] was “No detectable”.

In the case of `COc1ccc(COc2cccc(CCCN)c2)cc1` [Example 121, 3-(3-(4-Methoxybenzyloxy)phenyl)propan-1-amine], in experiment [3], the “IC50 (μM)” value was “No detectable”.

Turning to `NCCS(=O)(=O)c1cccc(OCC2CCCCC2)c1` [Example 125, 2-(3-(Cyclohexylmethoxy)phenylsulfonyl)ethanamine], the inhibition at 1 mg/kg in experiment [2] was 4%.

On to `N=C(N)CC(O)c1cccc(OCC2CCCCC2)c1` (stereo not shown) [Example 130, 3-(3-(Cyclohexylmethoxy)phenyl)-3-hydroxypropanimidamide], for which the inhibition at 1 mg/kg in experiment [2] was 3%.

For `NCCOc1cccc(OCCO)c1` [Example 141, 2-(3-(2-Aminoethoxy)phenoxy)ethanol], the “IC50 (μM)” value in experiment [3] was “No detectable”.

On to `NCCC(O)c1cccc(OCC2CCC(F)(F)CC2)c1` (stereo not shown) [Example 169, 3-Amino-1-(3-((4,4-difluorocyclohexyl)methoxy)phenyl)propan-1-ol], for which the IC50 in experiment [3] was not above 10 nM.

With `COC(=O)c1cc(CCCN)cc(OCC2CCCCC2)c1` [Example 170, Methyl 3-(3-aminopropyl)-5-(cyclohexylmethoxy)benzoate], in experiment [3], the IC50 is more than 10000 nM.

Regarding `NCC[C@@H](O)c1cccc(OC[C@H]2CC[C@@H](O)CC2)c1` [Example 171, (1,4-Cis)-4-((3-((R)-3-Amino-1-Hydroxypropyl)Phenoxy)Methyl)Cyclohexanol], in experiment [3], the IC50 was not above 10 nM.

Regarding `NCC[C@@H](O)c1cccc(OC[C@H]2CC[C@H](O)CC2)c1` [Example 172, (1,4-Trans)-4-((3-((R)-3-Amino-1-Hydroxypropyl)Phenoxy)Methyl)Cyclohexanol], in experiment [3], the IC50 is not above 10 nM.

As to `NCC[C@@H](O)c1cccc(OC[C@@H]2CCCC[C@H]2O)c1` [Example 175, (1,2-trans)-2-((3-((R)-3-Amino-1-hydroxypropyl)phenoxy)methyl)cyclohexanol], the IC50 in experiment [3] is not above 10 nM.

For the molecule `NCC[C@@H](O)c1cccc(OC[C@H]2CCCC[C@H]2O)c1` [Example 176, (1,2-cis)-2-((3-((R)-3-Amino-1-hydroxypropyl)phenoxy)methyl)cyclohexanol], the IC50 in experiment [3] was not above 10 nM.

Consider `CN(C)CCC(=O)c1cccc(OCC2CCCCC2)c1` [Example 182, 1-(3-(Cyclohexylmethoxy)phenyl)-3-(dimethylamino)propan-1-one], for which the IC50 in experiment [3] was more than 10000 nM.
